Laboratory results taken from patent US8252557B2, “Peptide-containing culture medium for culturing animal cell” (Chugai Seiyaku Kabushiki Kaisha, priority 2008, dated 2012).

System: humanized IgG (anti-glypican-3 antibody)-producing CHO cell line
Assay: Antibody-producing fed-batch culture, CHO cell line transfected with antibody gene
Assay type: cell-based
Details: for concentration of lactic acid during culture: compared to fed-batch medium not containing the peptide; for antibody concentration after the 14-day culture: fed day 3-14 at 1.0 g/hr per L, control about 1.6 g/L; for antibody concentration higher than control: peptide-containing fed-batch medium vs fed-batch medium without peptide, day 14
Protocol: (§1) The initial culture medium was placed in a jar-type cell culture system, and then the CHO cell line was added thereto into a concentration of 2×10^5 cells/mL and was cultured under the conditions of 37° C. and 10% CO2. During the culture period of 14 days, a pH level of not lower than 7.0 and a dissolved oxygen level of 40% were automatically maintained. The fed-batch medium was continuously fed from the 3rd day to the 14th day of the culture at a constant flow rate (1.0 g/hr for 1 L of the initial culture medium). The culture medium was sampled at the start of the culture and on the 3rd, 5th, 7th, 10th, 12th, and 14th days. The number of viable cells in each sampled culture solution was counted by trypan blue staining. The antibody concentration in the centrifuged supernatant of each culture solution was measured by affinity chromatography using protein A, and the concentration of lactic acid was measured by an immobilized enzyme process.
as §1, with “concentration” for “number”, “the produced” for “viable cells in each sampled culture solution was counted by trypan blue staining. The”, “antibody” for “antibody concentration”, “the” for “the centrifuged”, “sample” for “solution”, “A; the survival rate was measured by trypan blue staining;” for “A,”

[1] = fed-batch medium containing 50 mM of the peptide

Substance | concentration of lactic acid during culture | antibody concentration after the 14-day culture [1] | antibody concentration higher than control | antibody concentration after the 14-day culture (fed-batch medium containing 25 mM of the tripeptide)
Cys-Tyr [dipeptide] | relatively low levels from the 5th day to the 10th day | about 2.0 g/L | about 25% | 
Cys-Tyr-Ser [tripeptide] | relatively low levels from the 3rd day to the 10th day | about 2.1 g/L | about 30% | about 2.1 g/L
